Measured values reported in ChEMBL document CHEMBL4393686, “InCl3 mediated heteroarylation of indoles and their derivatization via CH activation strategy: Discovery of 2-(1H-indol-3-yl)-quinoxaline derivatives as a new class of PDE4B selective inhibitors for arthritis and/or multiple sclerosis” (Eur J Med Chem, 2019).
Calls of active or inactive are those of the source. The calls are words filed in the database; no cut-off is given here.

Columns and labels:
[1] = Toxicity in zebrafish embryo assessed as effect in heart formation at 1 to 100 uM; type: tissue-based, Danio rerio; settings: in vivo
[2] = molecular target: cGMP-inhibited 3',5'-cyclic phosphodiesterase 3A (Homo sapiens) (UniProt Q14432); test: Inhibition of recombinant PDE3A (unknown origin) using FAM-cAMP as substrate at 10 uM incubated for 60 mins by fluorescence plate reader analysis
cGMP-inhibited 3',5'-cyclic phosphodiesterase 3A (Homo sapiens), sequence (Q14432 whole entry): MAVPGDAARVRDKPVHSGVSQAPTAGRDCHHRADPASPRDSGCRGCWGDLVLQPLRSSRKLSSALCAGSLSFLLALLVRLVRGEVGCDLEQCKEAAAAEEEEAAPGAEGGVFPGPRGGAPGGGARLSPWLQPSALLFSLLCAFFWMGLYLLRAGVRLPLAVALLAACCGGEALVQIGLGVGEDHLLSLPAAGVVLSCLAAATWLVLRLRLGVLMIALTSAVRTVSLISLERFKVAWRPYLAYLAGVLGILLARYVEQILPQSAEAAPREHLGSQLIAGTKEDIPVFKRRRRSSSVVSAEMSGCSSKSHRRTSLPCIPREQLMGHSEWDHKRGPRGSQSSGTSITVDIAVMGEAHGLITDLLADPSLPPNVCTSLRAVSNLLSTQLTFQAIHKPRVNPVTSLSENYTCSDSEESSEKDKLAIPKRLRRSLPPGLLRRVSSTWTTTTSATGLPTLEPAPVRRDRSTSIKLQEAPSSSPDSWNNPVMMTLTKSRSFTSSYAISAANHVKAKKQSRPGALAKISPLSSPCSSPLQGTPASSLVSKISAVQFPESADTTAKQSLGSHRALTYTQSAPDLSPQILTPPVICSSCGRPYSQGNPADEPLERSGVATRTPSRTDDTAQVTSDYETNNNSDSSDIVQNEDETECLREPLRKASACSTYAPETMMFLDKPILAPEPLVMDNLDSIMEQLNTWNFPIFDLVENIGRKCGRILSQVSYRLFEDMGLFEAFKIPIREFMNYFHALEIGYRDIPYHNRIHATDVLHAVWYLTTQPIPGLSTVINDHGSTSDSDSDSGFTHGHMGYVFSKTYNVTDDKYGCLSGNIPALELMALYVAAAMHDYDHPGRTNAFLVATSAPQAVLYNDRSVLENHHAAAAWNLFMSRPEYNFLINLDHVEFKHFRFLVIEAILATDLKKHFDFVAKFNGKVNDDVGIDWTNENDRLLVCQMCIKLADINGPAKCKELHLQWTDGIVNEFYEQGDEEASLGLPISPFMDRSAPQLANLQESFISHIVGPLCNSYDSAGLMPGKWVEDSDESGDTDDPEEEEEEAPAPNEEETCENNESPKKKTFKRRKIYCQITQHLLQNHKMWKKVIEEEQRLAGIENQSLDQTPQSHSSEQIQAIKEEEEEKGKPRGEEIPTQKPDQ

[3] = molecular target: High affinity 3',5'-cyclic-AMP phosphodiesterase 7A (Homo sapiens) (UniProt Q13946); test: Inhibition of recombinant N-terminal GST tagged human PDE7A1 (122-end aa) expressed in Sf9 cells using FAM-cAMP as substrate at 10 uM incubated for 60 mins by fluorescence plate reader analysis
High affinity 3',5'-cyclic-AMP phosphodiesterase 7A (Homo sapiens), sequence (Q13946 whole entry): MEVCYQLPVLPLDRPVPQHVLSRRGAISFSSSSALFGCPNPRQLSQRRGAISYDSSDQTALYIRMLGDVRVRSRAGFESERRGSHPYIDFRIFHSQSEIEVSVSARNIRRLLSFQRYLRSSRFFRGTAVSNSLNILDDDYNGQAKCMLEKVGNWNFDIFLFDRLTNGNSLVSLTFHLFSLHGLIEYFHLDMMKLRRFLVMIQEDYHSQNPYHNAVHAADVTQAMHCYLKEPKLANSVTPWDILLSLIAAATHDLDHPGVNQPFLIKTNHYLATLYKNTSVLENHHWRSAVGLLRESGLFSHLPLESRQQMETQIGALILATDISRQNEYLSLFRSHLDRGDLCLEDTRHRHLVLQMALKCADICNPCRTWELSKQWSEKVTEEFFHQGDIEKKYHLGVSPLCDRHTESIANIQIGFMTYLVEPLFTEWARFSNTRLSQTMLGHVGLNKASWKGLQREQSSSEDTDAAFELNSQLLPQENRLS

[4] = system: Rattus norvegicus; test: Antiinflammatory activity in complete Freund's adjuvant-induced Wistar rat arthritis model assessed as reduction in TNFalpha mRNA expression at 30 mg/kg, ip administered from 11th day to 20th day by qPCR analysis; type: functional, organism-based
[5] = system: RAW264.7; test: Antiinflammatory activity in mouse RAW264.7 cells assessed as inhibition of LPS-induced iNOS expression preincubated for 30 mins followed by LPS stimulation and incubated for 10 hrs by immunoblotting analysis; type: functional, cell-based
[6] = system: Rattus norvegicus; test: Analgesic activity in complete Freund's adjuvant-induced Wistar rat arthritis model assessed as increase in reaction time at 30 mg/kg, ip administered from 11th day 20th day with last dose administered 30 mins prior to test by hot-plate test; type: functional, organism-based
[7] = AUC (0 to extrap) in BALB/c mouse at 10 mg/kg, iv measured for 24 hrs post dose by LC-MS/MS analysis; type: ADME, organism-based; settings: in vivo
[8] = molecular target: Cone cGMP-specific 3',5'-cyclic phosphodiesterase subunit alpha' (Homo sapiens) (UniProt P51160); test: Inhibition of recombinant N-terminal GST-tagged full length human PDE6C expressed in Sf9 cells using FAM-cGMP as substrate at 10 uM incubated for 60 mins by fluorescence plate reader analysis
[9] = Toxicity in zebrafish embryo assessed as effect in somite formation at 1 to 100 uM; design: species or system Danio rerio; settings: in vivo
[10] = Cardiotoxicity in zebrafish embryos assessed as artio-ventricular ratio at 1 to 100 uM; type: toxicity, Danio rerio
[11] = Half life in BALB/c mouse at 10 mg/kg, iv measured for 24 hrs post dose by LC-MS/MS analysis; type: ADME, organism-based; settings: in vivo
[12] = system: Rattus norvegicus; test: Antiinflammatory activity in complete Freund's adjuvant-induced Wistar rat arthritis model assessed as reduction in IL6 expression in serum at 30 mg/kg, ip administered from 11th day to 20th day by ELISA; type: functional, organism-based
[13] = system: Danio rerio; test: Anti-sclerotic activity in MOG/CFA-induced zebra fish EAE model assessed as reduction in lesion score at 3 to 30 mg/kg, ip measured for 7 days; type: functional, organism-based
[14] = molecular target: 3',5'-cyclic-AMP phosphodiesterase 4B (Homo sapiens, UniProt Q07343); test: Inhibition of recombinant His-tagged human PDE4B expressed in Sf9 cells using cAMP as substrate preincubated with enzyme for 15 mins followed by substrate addition and incubated for 1 hr by PDELight HTS cAMP phosphodiesterase Kit based luminometry
[15] = molecular target: High affinity cAMP-specific and IBMX-insensitive 3',5'-cyclic phosphodiesterase 8A (Homo sapiens) (UniProt O60658); test: Inhibition of recombinant N-terminal GST-tagged full length human PDE8A1 expressed in Sf9 cells using FAM-cAMP as substrate at 10 uM incubated for 60 mins by fluorescence plate reader analysis
High affinity cAMP-specific and IBMX-insensitive 3',5'-cyclic phosphodiesterase 8A (Homo sapiens), sequence (O60658 whole entry): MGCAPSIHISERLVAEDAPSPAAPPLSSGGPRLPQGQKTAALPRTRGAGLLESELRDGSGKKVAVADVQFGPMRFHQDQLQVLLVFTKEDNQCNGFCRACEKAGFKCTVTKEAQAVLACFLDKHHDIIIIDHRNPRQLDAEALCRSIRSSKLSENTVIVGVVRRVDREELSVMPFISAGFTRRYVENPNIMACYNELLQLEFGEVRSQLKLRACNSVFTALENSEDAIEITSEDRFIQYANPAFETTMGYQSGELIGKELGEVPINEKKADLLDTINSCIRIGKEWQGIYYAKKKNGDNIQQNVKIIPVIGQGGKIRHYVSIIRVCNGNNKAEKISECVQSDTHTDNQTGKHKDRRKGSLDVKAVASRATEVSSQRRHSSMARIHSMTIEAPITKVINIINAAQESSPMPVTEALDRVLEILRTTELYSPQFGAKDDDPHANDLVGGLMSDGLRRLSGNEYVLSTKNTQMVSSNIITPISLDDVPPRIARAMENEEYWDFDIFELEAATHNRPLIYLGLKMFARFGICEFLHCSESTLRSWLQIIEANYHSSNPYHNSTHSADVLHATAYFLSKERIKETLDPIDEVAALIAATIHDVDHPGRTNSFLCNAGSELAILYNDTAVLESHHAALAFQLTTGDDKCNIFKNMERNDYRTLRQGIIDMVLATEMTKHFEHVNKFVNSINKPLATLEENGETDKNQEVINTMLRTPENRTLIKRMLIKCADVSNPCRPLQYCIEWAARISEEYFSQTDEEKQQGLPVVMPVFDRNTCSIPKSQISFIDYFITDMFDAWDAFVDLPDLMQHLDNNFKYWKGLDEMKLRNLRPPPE

[16] = molecular target: 3',5'-cyclic-AMP phosphodiesterase 7B (Homo sapiens) (UniProt Q9NP56); test: Inhibition of recombinant N-terminal GST tagged and C-terminal His-tagged human PDE7B (109-ens aa) expressed in Sf9 cells using FAM-cAMP as substrate at 10 uM incubated for 60 mins by fluorescence plate reader analysis
3',5'-cyclic-AMP phosphodiesterase 7B (Homo sapiens), sequence (Q9NP56 whole entry): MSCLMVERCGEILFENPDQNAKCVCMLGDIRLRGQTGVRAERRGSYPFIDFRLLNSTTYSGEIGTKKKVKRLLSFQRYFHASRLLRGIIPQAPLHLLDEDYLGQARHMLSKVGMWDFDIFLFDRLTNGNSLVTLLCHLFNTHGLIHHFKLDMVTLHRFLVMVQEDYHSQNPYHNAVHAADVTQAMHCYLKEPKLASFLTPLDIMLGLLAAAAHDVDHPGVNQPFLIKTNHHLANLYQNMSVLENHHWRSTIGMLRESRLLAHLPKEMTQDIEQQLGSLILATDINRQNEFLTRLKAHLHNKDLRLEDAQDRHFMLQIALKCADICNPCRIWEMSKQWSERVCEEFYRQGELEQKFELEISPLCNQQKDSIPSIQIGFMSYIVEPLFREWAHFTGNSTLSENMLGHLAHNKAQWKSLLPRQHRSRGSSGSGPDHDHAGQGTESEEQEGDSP

[17] = molecular target: Dual specificity calcium/calmodulin-dependent 3',5'-cyclic nucleotide phosphodiesterase 1B (Homo sapiens) (UniProt Q01064); test: Inhibition of recombinant N-terminal GST tagged full length human PDE1B expressed in Sf9 cells using FAM-cAMP as substrate at 10 uM incubated for 60 mins by fluorescence plate reader analysis
[18] = molecular target: PDE4C (Homo sapiens, UniProt Q08493); test: Inhibition of PDE4C (unknown origin) at 100 uM using cAMP as substrate preincubated with enzyme for 15 mins followed by substrate addition and incubated for 1 hr by PDELight HTS cAMP phosphodiesterase Kit based luminometry relative to control; settings: probe cAMP
PDE4C, sequence (Q08493 whole entry): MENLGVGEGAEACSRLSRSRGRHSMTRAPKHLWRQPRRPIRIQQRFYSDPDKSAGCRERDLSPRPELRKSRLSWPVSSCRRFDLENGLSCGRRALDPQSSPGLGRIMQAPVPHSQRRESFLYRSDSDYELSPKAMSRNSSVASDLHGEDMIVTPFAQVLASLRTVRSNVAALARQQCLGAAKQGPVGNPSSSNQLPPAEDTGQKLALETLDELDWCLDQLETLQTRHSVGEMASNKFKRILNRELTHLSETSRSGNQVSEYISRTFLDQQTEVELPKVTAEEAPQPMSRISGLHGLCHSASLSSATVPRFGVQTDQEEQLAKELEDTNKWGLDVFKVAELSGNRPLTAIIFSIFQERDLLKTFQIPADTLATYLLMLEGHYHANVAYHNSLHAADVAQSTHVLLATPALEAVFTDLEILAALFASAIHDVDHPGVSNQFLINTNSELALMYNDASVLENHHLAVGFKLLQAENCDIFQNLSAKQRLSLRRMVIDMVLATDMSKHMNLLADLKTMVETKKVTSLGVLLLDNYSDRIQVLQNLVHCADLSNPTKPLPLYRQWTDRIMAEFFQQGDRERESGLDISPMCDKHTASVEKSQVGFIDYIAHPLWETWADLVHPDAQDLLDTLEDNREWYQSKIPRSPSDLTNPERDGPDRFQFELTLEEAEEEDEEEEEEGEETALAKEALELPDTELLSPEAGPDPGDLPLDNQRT

[19] = Clearance in BALB/c mouse at 10 mg/kg, iv measured for 24 hrs post dose by LC-MS/MS analysis; type: ADME, organism-based; settings: in vivo
[20] = Toxicity in zebrafish embryo; design: species or system Danio rerio; settings: in vivo
[21] = species: Homo sapiens; test: Selectivity index, ratio of IC50 for PDE4D2 (unknown origin) to IC50 for recombinant His-tagged human PDE4B expressed in sf9 cells using cAMP as substrate by PDELight HTS cAMP phosphodiesterase Kit based luminometry
[22] = system: Rattus norvegicus; test: Antiinflammatory activity in complete Freund's adjuvant-induced Wistar rat arthritis model assessed as reduction in TNFalpha expression in serum at 30 mg/kg, ip administered from 11th day to 20th day by ELISA; type: functional, organism-based
[23] = species: Homo sapiens; test: Selectivity for recombinant His-tagged human PDE4B over PDE4C (unknown origin)
[24] = molecular target: Dual specificity calcium/calmodulin-dependent 3',5'-cyclic nucleotide phosphodiesterase 1A (Homo sapiens) (UniProt P54750); test: Inhibition of recombinant N-terminal GST-tagged full-length human PDE1A1 expressed in Sf9 cells using FAM-cAMP as substrate at 10 uM incubated for 60 mins by fluorescence plate reader analysis
Dual specificity calcium/calmodulin-dependent 3',5'-cyclic nucleotide phosphodiesterase 1A (Homo sapiens), sequence (P54750 whole entry): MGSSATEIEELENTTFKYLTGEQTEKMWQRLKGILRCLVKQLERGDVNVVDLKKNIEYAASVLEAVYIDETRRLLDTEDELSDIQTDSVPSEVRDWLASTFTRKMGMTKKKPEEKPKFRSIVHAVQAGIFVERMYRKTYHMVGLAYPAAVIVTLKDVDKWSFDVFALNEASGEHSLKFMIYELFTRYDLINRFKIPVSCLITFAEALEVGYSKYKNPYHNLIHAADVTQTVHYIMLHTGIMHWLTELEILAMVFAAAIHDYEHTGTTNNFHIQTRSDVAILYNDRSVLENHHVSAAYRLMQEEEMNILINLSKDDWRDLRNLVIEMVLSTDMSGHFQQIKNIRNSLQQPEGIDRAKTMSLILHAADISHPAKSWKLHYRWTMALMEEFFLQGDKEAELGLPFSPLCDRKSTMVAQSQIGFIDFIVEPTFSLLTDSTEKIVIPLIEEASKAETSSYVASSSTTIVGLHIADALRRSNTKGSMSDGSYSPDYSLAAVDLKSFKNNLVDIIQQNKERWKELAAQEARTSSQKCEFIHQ

[25] = system: Rattus norvegicus; test: Antiarthritic activity in complete Freund's adjuvant-induced Wistar rat arthritis model assessed as reduction in synovial inflammation at 30 mg/kg, ip administered from 11th day to 20th day by H&E staining based microscopic analysis; type: functional, organism-based
[26] = molecular target: 3',5'-cyclic-AMP phosphodiesterase 4D (Homo sapiens, UniProt Q08499); test: Inhibition of PDE4D2 (unknown origin) using cAMP as substrate preincubated with enzyme for 15 mins followed by substrate addition and incubated for 1 hr by PDELight HTS cAMP phosphodiesterase Kit based luminometry
3',5'-cyclic-AMP phosphodiesterase 4D, sequence (Q08499 whole entry): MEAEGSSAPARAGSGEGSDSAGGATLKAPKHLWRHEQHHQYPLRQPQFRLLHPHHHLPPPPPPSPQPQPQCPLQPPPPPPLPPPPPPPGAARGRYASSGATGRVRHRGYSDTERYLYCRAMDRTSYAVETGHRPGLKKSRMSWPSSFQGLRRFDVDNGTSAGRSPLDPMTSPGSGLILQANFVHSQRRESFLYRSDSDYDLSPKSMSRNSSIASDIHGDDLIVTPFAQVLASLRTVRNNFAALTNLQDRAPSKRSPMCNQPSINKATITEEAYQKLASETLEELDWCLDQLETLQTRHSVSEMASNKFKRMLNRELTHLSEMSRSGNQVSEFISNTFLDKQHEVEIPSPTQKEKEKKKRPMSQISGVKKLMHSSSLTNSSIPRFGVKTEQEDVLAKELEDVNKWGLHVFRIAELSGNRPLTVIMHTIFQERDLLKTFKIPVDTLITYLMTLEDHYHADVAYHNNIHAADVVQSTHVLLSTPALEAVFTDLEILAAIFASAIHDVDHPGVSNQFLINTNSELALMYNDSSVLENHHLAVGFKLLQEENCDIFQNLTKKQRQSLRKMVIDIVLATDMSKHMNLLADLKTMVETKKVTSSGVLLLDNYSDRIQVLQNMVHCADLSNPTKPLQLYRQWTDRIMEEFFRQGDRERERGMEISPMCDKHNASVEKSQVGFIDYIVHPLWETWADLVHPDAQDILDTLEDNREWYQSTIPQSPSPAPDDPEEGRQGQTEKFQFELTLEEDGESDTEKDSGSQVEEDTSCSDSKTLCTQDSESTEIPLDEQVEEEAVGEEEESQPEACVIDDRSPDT

[27] = Metabolic stability in rat liver microsomes assessed as compound remaining at 5 uM incubated for 30 mins in presence of air measured after 60 mins by LC-MS/MS analysis; type: ADME, Microsome; settings: read-out: Stability
[28] = system: RAW264.7; test: Antiinflammatory activity in mouse RAW264.7 cells assessed as inhibition of LPS-induced TNFalpha mRNA expression preincubated for 30 mins followed by LPS stimulation and incubated for 10 hrs by qPCR analysis; type: functional, cell-based
[29] = MRTlast in BALB/c mouse at 10 mg/kg, iv measured for 24 hrs post dose by LC-MS/MS analysis; type: ADME, organism-based; settings: in vivo
[30] = Volume of distribution at steady state in BALB/c mouse at 10 mg/kg, iv measured for 24 hrs post dose by LC-MS/MS analysis; type: ADME, organism-based; settings: in vivo, read-out: Vdss
[31] = Hepatotoxicity in zebrafish embryos assessed as yolk sac retention at 1 to 100 uM incubated for 7 dpf; type: toxicity, Danio rerio; settings: in vivo
[32] = Toxicity in zebrafish embryos assessed as teratogenicity score at 1 to 100 uM incubated for 5 dpf; design: species or system Danio rerio; settings: in vivo

C=CCn1cc(-c2nc3ccccc3nc2Cl)c2cc(OC)ccc21
Activity [1]: Non-Toxic
inhibition [2]: 1%
inhibition [3]: 3%
inhibition [4]: Active
inhibition [5]: Active
Activity [6]: Active
%AUCextra [7]: 6.23%
inhibition [8]: 2%
Activity [9]: Non-Toxic
Activity [10]: Non-Toxic
half-life [11]: 38.4 min
inhibition [12]: Active
inhibition [13]: inactive
IC50 [14]: 0.39 µM
inhibition [15]: 3%
inhibition [16]: 2%
inhibition [17]: 23%
inhibition at 1 h, 100 µM [18]: 20 to 30%
clearance [19]: 143 mL/min/kg
NOAEL [20]: 30 µM
Ratio IC50 [21]: 27
inhibition [22]: Active
Selectivity ratio [23]: > 250
inhibition [24]: 12%
inhibition [25]: Active
IC50 [26]: 10.7 µM
remaining at 60 min, 5 µM [27]: 42.2%
inhibition [28]: Active
MRT last at 24 h [29]: 21.6 min
Vd [30]: 4.46 L/kg
Activity [31]: Non-Toxic
Activity [32]: Non-Toxic
